The test system of assay [1] is RA response genes in HCT116 cells. The assay is described as follows: Microarray analysis of RA response gene expression in HCT116 cells. The format is cell-based, human. As to conditions: 5 μM 5-Aza-CdR. An excerpt: (§1) Cell Culture and Drug Treatments.
(§2) Microarray Analysis. Slides were produced using a Generation m Microarray Spotter (Molecular Dynamics). Each microarray contained 4608 minimally redundant cDNAs spotted in duplicate on 3-aminopropyl-trimethoxy silane (Sigma) coated slides and UV crosslinked in a Stratalinker (Stratagene). The cDNA clones on the microarray were obtained from Research Genetics and Genome Systems. […] . Cultures were transferred to a multiscreen 96-well glass fiber filtration plate (Millipore) and growth medium voided. Twenty-five μl of 25 mM Tris-HCl, pH 8; 10 mM EDTA, 50 μl of 0.2N NaOH, 1% SDS and 160 μl of 0.7M potassium acetate, pH 4.8; 5.3M guanidine hydrochloride were added to each well of the glass filtration plate. Cell lysates were drawn through the glass filters under vacuum and filter-bound DNA was washed four times with 200 μl of 80% ethanol. Plasmid DNAs were eluted by centrifugation following the addition of 65 μl of distilled H2O. Samples were collected in a 96-well microtiter dish during centrifugation.
(§3) Generation of microarray probes, microarray hybridizations, and scanning Total RNA was isolated using Trizol reagent (Invitrogen) and poly-A RNA was selected using an Oligotex Kit (Qiagen). […]
(§4) Hybridizations were performed overnight at 42° C. in a humidified chamber. […] Fluorescent intensities were quantified using ArrayVision 4.0 (Imaging Research).

The test system of assay [2] is RDHL. Description: Northern analysis of RDHL expression in HT29 cells. The format is cell-based, human. As to conditions: 5 μM 5-Aza-CdR, cultured 6 days. The source says: (§5) Cell Culture and Drug Treatments. […] Northern blotting.
The test system of assay [3] is RDH5. The assay is described as follows: Northern analysis of RDH5 expression in HCT116 cells. The format is cell-based, human. As to conditions: 5-Aza-CdR.
Source text: as §5

The subject of assay [4] is RDH5. Description: Northern analysis of RDH5 expression in HT29 cells. The settings on record: after 5-Aza-CdR treatment.
For assay [5], the system named is HCT116 cells. The settings on record: following 5-Aza-CdR treatment; cited from earlier work.
Assay [6] has as its system cdx2. The assay is described as follows: Northern analysis of cdx2 expression in HT29 cells. The assay is classed as cell-based, human. As to conditions: after 5-Aza-CdR.
Source text: as §5

Assay [7] relates to HT29 cells. As to conditions: found previously (56); cited from earlier work.
Assay [8] concerns RA response genes in HT29 cells. Description: Microarray analysis of RA response gene expression in HT29 cells. The format is cell-based, human.
Source text: as §1, §2, §3, §4

Assay [9] concerns cdx2. The assay is described as follows: Northern analysis of cdx2 in HT29 APC-inducible cells. The settings on record: 100 μM ZnCl2 24 h, data not shown. The format is cell-based, human.
Source text: as §5

The test system of assay [10] is RDHL. The assay is described as follows: Northern analysis of RDHL in HT29 APC-inducible cells. The assay is classed as cell-based, human. The settings on record: 100 μM ZnCl2 24 h vs water, normalized to GAPDH.
Source text: as §5

For assay [11], the system named is RDHL. Description: Northern analysis of RDHL in HT29 β-galactosidase-inducible cells. The format is cell-based, human. As to conditions: HT29 β-galactosidase-inducible cells (negative control); 100 μM ZnCl2 24 h vs water.
Source text: as §5

For assay [12], the system named is colon cancer cells. The settings on record: cited from earlier work.

Entries after “also recorded” stand apart in the source; their conditions may differ. Read-outs that look alike come from different tables or passages of the source.

On to `Nc1ncn([C@H]2C[C@H](O)[C@@H](CO)O2)c(=O)n1` [5-Aza-CdR, 5-aza-2′-deoxycytidine], for which the “RA response gene expression” value in [1] is reported as “not induced”; in assay [8] (5 μM 5-Aza-CdR on day 0, cultured 10 days, microarray vs PBS/ethanol) it was “enhances”. The RDHL expression result in assay [2] is given as “expression of RDHL only after treatment with 5-Aza-CdR; also recorded: re-expressed”. The RDH5 expression result in [3] is on record as “no effect”. Further, the RDH5 levels result in assay [4] is listed as “slightly increased; also recorded: re-expressed”. Also, the markers of differentiation entry in assay [5] is recorded as “few markers of differentiation”. Besides, the cdx2 expression result in assay [6] is listed as “induction of cdx2”. Further, the “differentiation and differentiation markers” value in assay [7] is “stimulates biological aspects of differentiation and the appearance of differentiation markers”. Moreover, the “RA responsiveness of RA response genes” value in [8] (5 μM 5-Aza-CdR 10 days, then 1 μM RA 24 h) is listed as “conferred RA responsiveness”.
As for `[Cl-].[Cl-].[Zn+2]` [ZnCl2], the “cdx2 induction after re-introduction of APC” value in assay [9] is given as “no cdx2 induction”. In addition, the “fold RDHL induction” value is 3.2 fold in assay [10] and 1.2 fold in assay [11].
As to `CC(=O)[C@H]1CC[C@H]2[C@@H]3CCC4=CC(=O)CC[C@]4(C)[C@H]3CC[C@]12C` [progesterone], the “cell growth of colon cancer cells” value in [12] (one study (86)) is “failed to affect cell growth”.
Regarding `C[C@]12CC[C@H]3[C@@H](CCC4=CC(=O)CC[C@@]43C)[C@@H]1CC[C@@H]2O` [testosterone], the entries for the “cell growth of colon cancer cells” value in assay [12] (another group (87)) and in assay [12] (one study (86)) were “increased cell growth” and “failed to affect cell growth”, respectively.

The values above are taken from patent US20050245440A1, “Regulation of a novel colon specific retinol dehydrogenase by apc and cdx2” (University of Utah Research Foundation, priority 2002, published 2005).
